For 34 compounds, IC50 results are on record in patent US20260356804A1, “SODIUM CHANNEL BLOCKING COMPOUNDS, DERIVATIVES THEREOF, AND METHODS OF THEIR USE” (LATIGO BIOTHERAPEUTICS, INC., priority 2022, published 2026).

Read-outs that look alike come from different tables or passages of the source.

For one experiment, the target named is T1, human Nav1.8/β1 (Homo sapiens, UniProt Q9Y5Y9).
T1 construct: host or cells: HEK293
Put plainly: Compound Profiling Human NaV1.8/β1 Cell Line—Sophion QPatch II Assay (automated patch clamp, stably transfected HEK293 cells). The experiment is classed as cell-based. The method, then:
Compounds were tested on recombinant human Nav1.8/β1 stably transfected HEK293 (Eurofins, CYL3025, St. Charles, MO) cells using the QPatch II system (Sophion Bioscience A/S, Ballerup—Denmark), an automated patch clamp device. Cells were cultured at 37° C./5% CO2 in DMEM/F-12 supplemented with 10% fetal bovine serum, 1× Non-Essential Amino Acids, and selection antibiotics (0.625 μg/mL Puromycin, 400 μg/mL Geneticin, and 100 μg/mL Hygromycin). One or two days prior to recording, cells were moved to a lower temperature 30° C./5% CO2 incubator to increase surface expression of the channels. On the day of the recordings, cells in culture dishes were washed twice with Ca^2+—Mg^2+ free DPBS and treated with Detachin (Genlantis, San Diego) for 3 minutes and then resuspended in Serum Free Medium (EX-CELL® ACF CHO Medium for Cell Culture (Sigma-Aldrich) supplemented with 0.04 mg/mL soybean trypsin Inhibitor and 25 mM HEPES (all components supplied by Sigma-Aldrich, St. Louis, MO) and allowed to recover for a minimum of 20 minutes in the onboard QStirrer. All experiments were performed at ambient temperature. Intracellular solution contained (mM): CsCl, 50; CsF, 90; MgCl2, 2; EGTA, 5; HEPES, 10; pH adjusted to 7.2 with CsOH. Extracellular solution contained (mM): NaCl, 137; KCl, 4; CaCl2), 3.8; MgCl2, 1; HEPES, 10; Glucose, 10; pH adjusted to 7.4 with NaOH. [LEFT OUT].
Compounds were tested in an interleaved manner across two cohorts of wells to develop an aggregate 8-point concentration response curve. Final concentrations include 0.1% DMSO and 0.03% pluronic Acid. In general, the concentration range spans a range from 0.01-300 nM. Compounds were diluted 1:10 with extracellular solution within their respective cohort. DMSO (0.1% by volume) served as a vehicle control to ascertain assay performance.
(§1) Whole cell patch clamp recordings were conducted according to Sophion standard procedure for QPatch II®. Cells were held at a holding potential of −120 mV. A depolarizing step to 10 mV for 30 ms was applied to elicit inward Na^+ currents. Inter-sweep interval was 15 sec. Following establishment of the whole-cell configuration in extracellular solution, cells were washed twice in extracellular solution containing 0.1% DMSO and 0.03% pluronic acid to stabilize the baseline current. Compounds were then applied by the QPatch II system into each well in an ascending manner within cohort and the current was recorded for five minutes for each concentration. Percent of current remaining was determined by taking the average of the last 5 sweeps within each concentration and normalizing to the latest pre-compound saline period. The potency (IC50) values of the compounds were only assessed against resting state block. Wells whose initial sodium current magnitude were below 2 nA or whole cell resistance fell below 100 MΩ were excluded from analysis.
as §1, with “MO” for “MΩ”, “analysis. […]” for “analysis.”
Background: In patch-clamp work, channel activity is measured electrically.

The target in a further experiment is T2, human Nav1.8/b3 (Homo sapiens, UniProt Q9Y5Y9).
T2 construct: expressed in transfected cells; host or cells: CHO
Put plainly: Compound Profiling Human NaV1.8/β3 Cell Line—SyncroPatch384PE Assay (automated patch clamp, stably transfected CHO cells). The experiment is classed as cell-based. Particulars: Nav1.8/b3 CHO cells, third set of compounds.

Setting [1] is: P1, resting state block, Nav1.8/β1 HEK293 cells, holding potential −120 mV, fourth set of compounds, read-out: P1 (IC50, resting state block).
[2] abbreviates: P1, resting state block, Nav1.8/β1 HEK293 cells, holding potential −120 mV, first set of compounds, read-out: P1 (IC50, resting state block).
Where [3] appears, read: P1 (IC50, resting state block), P1 measurement, resting state block, holding potential −120 mV.
Where [4] appears, read: P2 (IC50, inactivated state block), P2 measurement, inactivated state block, inactivation step −35 mV 10 sec.
The mark [5] stands for this setting: P1 measurement, resting state block, holding potential −120 mV, read-out: P1 (IC50, resting state block).
The mark [6] stands for this setting: P2 measurement, inactivated state block, inactivation step −35 mV 10 sec, read-out: P2 (IC50, inactivated state block).

T1 sequence (Q9Y5Y9 whole entry): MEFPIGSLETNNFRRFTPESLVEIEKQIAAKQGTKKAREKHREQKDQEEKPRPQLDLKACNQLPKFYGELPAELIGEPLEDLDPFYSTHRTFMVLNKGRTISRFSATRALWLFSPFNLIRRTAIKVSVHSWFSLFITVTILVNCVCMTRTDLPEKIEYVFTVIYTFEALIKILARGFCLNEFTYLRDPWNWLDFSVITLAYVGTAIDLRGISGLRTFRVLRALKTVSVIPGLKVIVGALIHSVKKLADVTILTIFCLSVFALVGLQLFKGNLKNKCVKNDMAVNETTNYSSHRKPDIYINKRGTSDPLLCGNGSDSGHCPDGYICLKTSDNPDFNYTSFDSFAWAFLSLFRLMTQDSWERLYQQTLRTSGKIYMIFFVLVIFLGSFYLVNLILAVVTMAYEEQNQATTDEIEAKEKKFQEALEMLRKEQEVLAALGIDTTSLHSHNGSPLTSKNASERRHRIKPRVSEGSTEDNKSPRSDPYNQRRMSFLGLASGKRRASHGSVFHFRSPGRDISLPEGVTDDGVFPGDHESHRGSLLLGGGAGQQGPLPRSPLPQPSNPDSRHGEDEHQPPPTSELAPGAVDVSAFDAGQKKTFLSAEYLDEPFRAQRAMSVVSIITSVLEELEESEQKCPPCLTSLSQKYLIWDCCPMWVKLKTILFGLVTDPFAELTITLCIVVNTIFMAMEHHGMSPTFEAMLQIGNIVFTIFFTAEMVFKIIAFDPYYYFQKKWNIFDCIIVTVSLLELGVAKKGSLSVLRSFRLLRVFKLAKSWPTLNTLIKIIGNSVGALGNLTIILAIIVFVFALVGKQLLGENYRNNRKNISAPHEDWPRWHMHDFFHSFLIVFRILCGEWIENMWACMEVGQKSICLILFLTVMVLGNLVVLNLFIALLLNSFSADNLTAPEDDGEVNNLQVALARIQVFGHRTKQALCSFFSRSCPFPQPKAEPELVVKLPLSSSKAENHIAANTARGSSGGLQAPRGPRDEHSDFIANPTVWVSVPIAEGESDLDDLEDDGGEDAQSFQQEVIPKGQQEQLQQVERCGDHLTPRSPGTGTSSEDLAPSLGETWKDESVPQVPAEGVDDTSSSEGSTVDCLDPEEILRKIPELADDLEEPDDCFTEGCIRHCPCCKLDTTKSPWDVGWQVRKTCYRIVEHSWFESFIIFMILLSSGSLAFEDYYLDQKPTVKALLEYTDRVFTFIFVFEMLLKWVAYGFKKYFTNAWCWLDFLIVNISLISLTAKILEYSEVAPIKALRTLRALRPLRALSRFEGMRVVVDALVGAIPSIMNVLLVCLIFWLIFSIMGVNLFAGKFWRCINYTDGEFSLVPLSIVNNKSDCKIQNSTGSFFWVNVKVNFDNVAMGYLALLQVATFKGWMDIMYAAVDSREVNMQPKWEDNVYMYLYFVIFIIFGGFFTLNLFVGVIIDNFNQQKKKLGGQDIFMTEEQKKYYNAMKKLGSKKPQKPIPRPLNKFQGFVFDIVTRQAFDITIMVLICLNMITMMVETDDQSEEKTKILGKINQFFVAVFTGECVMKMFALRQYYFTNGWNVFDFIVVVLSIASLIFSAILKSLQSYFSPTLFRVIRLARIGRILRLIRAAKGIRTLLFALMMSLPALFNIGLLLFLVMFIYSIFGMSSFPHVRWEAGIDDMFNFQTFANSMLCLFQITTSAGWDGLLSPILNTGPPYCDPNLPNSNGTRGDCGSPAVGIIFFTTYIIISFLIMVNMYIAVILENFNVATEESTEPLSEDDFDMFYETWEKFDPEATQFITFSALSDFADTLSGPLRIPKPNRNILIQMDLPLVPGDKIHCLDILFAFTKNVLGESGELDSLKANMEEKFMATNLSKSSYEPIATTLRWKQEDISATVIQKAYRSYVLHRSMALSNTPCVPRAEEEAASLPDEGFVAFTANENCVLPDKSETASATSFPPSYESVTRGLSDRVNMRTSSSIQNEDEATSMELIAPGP
T1 sequence (Q07699 19-218 partner): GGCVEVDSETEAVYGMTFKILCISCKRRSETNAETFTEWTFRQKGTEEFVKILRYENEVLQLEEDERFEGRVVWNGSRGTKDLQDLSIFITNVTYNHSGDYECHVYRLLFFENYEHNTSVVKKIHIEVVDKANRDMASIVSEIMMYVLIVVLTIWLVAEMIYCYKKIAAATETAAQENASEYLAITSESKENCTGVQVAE
T2 sequence (Q9Y5Y9 whole entry): as the sequence (Q9Y5Y9 whole entry) above
T2 sequence (Q9NY72 23-215 partner): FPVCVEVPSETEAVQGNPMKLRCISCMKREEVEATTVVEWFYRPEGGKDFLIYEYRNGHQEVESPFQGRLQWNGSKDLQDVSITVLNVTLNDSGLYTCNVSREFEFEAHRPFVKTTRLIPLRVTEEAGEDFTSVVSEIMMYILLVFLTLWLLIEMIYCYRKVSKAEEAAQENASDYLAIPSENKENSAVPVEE

As to `Cc1nc(F)ccc1Oc1ncc(C(F)(F)F)c(C)c1C(=O)Nc1cccc(S2(=O)=NC(=O)CC2)c1` (single isomer, unassigned) [Example 30D, 2-((6-fluoro-2-methylpyridin-3-yl)oxy)-4-methyl-N-(3-(1-oxido-3-oxo-4,5-dihydro-3H-1l6-isothiazol-1-yl)phenyl)-5-(trifluoromethyl)nicotinamide], the half-maximal inhibitory concentration (IC50) at human Nav1.8/β1 (setting [1]) is > 200 nM.

Regarding `Cc1nc(F)ccc1Oc1ncc(C(F)(F)F)c(C)c1C(=O)Nc1cccc(S2(=O)=NC(=O)CC2)c1` (single isomer, unassigned) [Example 31D, 2-((6-fluoro-2-methylpyridin-3-yl)oxy)-4-methyl-N-(3-(1-oxido-3-oxo-4,5-dihydro-3H-1l6-isothiazol-1-yl)phenyl)-5-(trifluoromethyl)nicotinamide], the IC50 at human Nav1.8/β1 (setting [1]) was 50 to 100 nM. As for `COc1cc(C#N)ccc1Oc1cc(C(F)(F)F)c(Cl)cc1C(=O)Nc1ccc(F)c([S@](C)(=N)=O)c1` [Example 8A, (R)-5-chloro-2-(4-cyano-2-methoxyphenoxy)-N-(4-fluoro-3-(S-methylsulfonimidoyl)phenyl)-4-(trifluoromethyl)benzamide], the IC50 against human Nav1.8/β1 lay in the range of 5 to 50 nM. With `COc1cc(Br)ccc1Oc1cc(C(F)(F)F)c(Cl)cc1C(=O)Nc1ccnc([S@](C)(=N)=O)c1` [Example 11A, (R)-2-(4-bromo-2-methoxyphenoxy)-5-chloro-N-(2-(S-methylsulfonimidoyl)pyridin-4-yl)-4-(trifluoromethyl)benzamide], the IC50 at human Nav1.8/β1 (setting [2]) is < 5 nM. With `COc1cc(C#N)ccc1Oc1cc(C(F)(F)F)c(Cl)cc1C(=O)Nc1ccnc([S@](C)(=N)=O)c1` [Example 12A, (R)-5-chloro-2-(4-cyano-2-methoxyphenoxy)-N-(2-(S-methylsulfonimidoyl)pyridin-4-yl)-4-(trifluoromethyl)benzamide], the IC50 against human Nav1.8/β1 fell in the range of 5 to 50 nM.

Take `COc1cc(C#N)ccc1Oc1cc(C(F)(F)F)c(Cl)cc1C(=O)Nc1ccnc([S@@](C)(=N)=O)c1` [Example 15A]: the IC50 on human Nav1.8/β1 (setting [2]) lay in the range of 5 to 50 nM.

On to `COc1cc(Br)ccc1Oc1cc(C(F)(F)F)c(Cl)cc1C(=O)Nc1ccnc([S@@](C)(=N)=O)c1` [Example 16A], for which the concentration for half-maximal inhibition (IC50) at human Nav1.8/β1 (setting [2]) was < 5 nM.

On human Nav1.8/β1, `Cc1nc(F)ccc1Oc1cc(C(F)(F)F)c(Cl)cc1C(=O)Nc1ccnc(S(C)(=O)=O)c1` [Example 17A] yielded an IC50 of 5 to 50 nM.

Consider `Cc1nc(F)ccc1Oc1cc(C(F)(F)F)ccc1C(=O)Nc1ccnc([S@@](C)(=N)=O)c1` [Example 18A], for which the IC50 on human Nav1.8/β1 (setting [2]) is > 200 nM. Regarding `Cc1cc(F)ncc1Oc1cc(C(F)(F)F)c(Cl)cc1C(=O)Nc1ccnc([S@@](C)(=N)=O)c1` [Example 19A], the IC50 on human Nav1.8/β1 (setting [2]) is > 200 nM. Same read-out and setting: the result for `Cc1cc(F)ncc1Oc1cc(C(F)(F)F)c(Cl)cc1C(=O)Nc1ccnc([S@](C)(=N)=O)c1` [Example 20A] reads 100 to 200 nM. In the case of `Cc1cc(F)ncc1Oc1cc(C(F)(F)F)c(Cl)cc1C(=O)Nc1cccc([S@@](C)(=N)=O)c1` [Example 21A], the IC50 at human Nav1.8/β1 (setting [2]) is 100 to 200 nM. Same read-out and setting: next, `Cc1cc(F)ncc1Oc1cc(C(F)(F)F)c(Cl)cc1C(=O)Nc1cccc([S@](C)(=N)=O)c1` [Example 22A]: 50 to 100 nM. Consider `Cc1cc(F)ncc1Oc1cc(C(F)(F)F)c(Cl)cc1C(=O)Nc1ccc(F)c([S@@](C)(=N)=O)c1` [Example 23A], for which the IC50 on human Nav1.8/β1 (setting [2]) is > 200 nM. The compound `Cc1cc(F)ncc1Oc1cc(C(F)(F)F)c(Cl)cc1C(=O)Nc1ccc(F)c([S@](C)(=N)=O)c1` [Example 24A] registered a half-maximal inhibitory concentration (IC50) on human Nav1.8/β1 of 100 to 200 nM. The same measure, in the same setting: the result for `COc1cc(C#N)ccc1Oc1cc(C(F)(F)F)c(Cl)cc1C(=O)Nc1cccc([S@@](C)(=N)=O)c1` [Example 25A] reads > 200 nM. With `COc1cc(C#N)ccc1Oc1cc(C(F)(F)F)c(Cl)cc1C(=O)Nc1ccc(F)c([S@@](C)(=N)=O)c1` [Example 26A], the concentration for half-maximal inhibition (IC50) at human Nav1.8/β1 is > 200 nM. For `COc1cc(C#N)ccc1Oc1cc(C(F)(F)F)c(Cl)cc1C(=O)Nc1cccc([S@](C)(=N)=O)c1` [Example 27A], the IC50 against human Nav1.8/β1 was > 200 nM. The same measure, in the same setting: the result for `Cc1nc(F)ccc1Oc1cc(C(F)(F)F)ccc1C(=O)Nc1ccnc([S@](C)(=N)=O)c1` [Example 28A] reads > 200 nM. Turning to `Cc1nc(F)ccc1Oc1ncc(C(F)(F)F)c(C)c1C(=O)Nc1ccc(C(N)=O)nc1` [Example 111C], the concentration for half-maximal inhibition (IC50) at human Nav1.8/b3 (setting [3]) and against human Nav1.8/b3 (setting [4]) was > 200 nM in each case. For the compound `Cc1nc(F)ccc1Oc1ncc(C(F)(F)F)c(C)c1C(=O)NC12CC(C(N)=O)(C1)C2` [Example 112C], the IC50 on human Nav1.8/b3 (setting [3]) and at human Nav1.8/b3 (setting [4]) was > 200 nM each time. As to `Cc1nc(F)ccc1Oc1nc(C(F)(F)F)c(C#N)c(C)c1C(=O)Nc1cccc([S@](C)(=N)=O)c1` [Example 113C], the IC50 against human Nav1.8/b3 (setting [3]) and against human Nav1.8/b3 (setting [4]) was 5 to 50 nM throughout.

In the case of `Cc1nc(F)ccc1Oc1ncc(C(F)F)c(C)c1C(=O)Nc1ccnc([S@@](C)(=N)=O)c1` [Example 114C], the IC50 on human Nav1.8/b3 (setting [3]) and at human Nav1.8/b3 (setting [4]) was > 200 nM each time. Take `Cc1nc(F)ccc1Oc1ncc(C(F)F)c(C)c1C(=O)Nc1ccnc([S@](C)(=N)=O)c1` [Example 115C]: the IC50 on human Nav1.8/b3 (setting [5]) and at human Nav1.8/b3 (setting [6]) was > 200 nM each time. In the case of `COc1ccc(Oc2ncc(C(F)(F)F)c(C)c2C(=O)Nc2cccc([S@@](C)(=N)=O)c2)c(C)n1` [Example 116C], the half-maximal inhibitory concentration (IC50) on human Nav1.8/b3 (setting [3]) and at human Nav1.8/b3 (setting [4]) was 5 to 50 nM throughout. Regarding `Cc1nc(O)ccc1Oc1ncc(C(F)(F)F)c(C)c1C(=O)Nc1cccc([S@](C)(=N)=O)c1` [Example 117C], the IC50 against human Nav1.8/b3 (setting [3]) and on human Nav1.8/b3 (setting [4]) was > 200 nM each time.

On to `Cc1nc(F)ccc1Oc1ncc(C(F)(F)F)c(C)c1C(=O)Nc1ccc(C(N)=O)cc1` [Example 118C], for which the IC50 at human Nav1.8/b3 (setting [3]) and at human Nav1.8/b3 (setting [4]) was < 5 nM each time.

On to `Cc1nc(F)ccc1Oc1ncc(C(F)(F)F)c(C)c1C(=O)Nc1cccc(C(N)=O)c1` [Example 119C], for which the half-inhibitory concentration (IC50) on human Nav1.8/b3 (setting [3]) and on human Nav1.8/b3 (setting [4]) was < 5 nM in each case. In the case of `Cc1nc(F)ccc1Oc1ncc(C(F)(F)F)c(C)c1C(=O)Nc1ccnc(C(N)=O)c1` [Example 120C], the IC50 at human Nav1.8/b3 (setting [5]) and on human Nav1.8/b3 (setting [6]) was 5 to 50 nM throughout. For the compound `Cc1ccc(Oc2ncc(C(F)(F)F)c(C)c2C(=O)Nc2cccc([S@@](C)(=N)=O)c2)c(F)n1` [Example 121C], the IC50 against human Nav1.8/b3 (setting [3]) and against human Nav1.8/b3 (setting [4]) was 50 to 100 nM each time.

`Cc1nc(F)ccc1Oc1ncc(I)c(C)c1C(=O)Nc1cccc([S@](C)(=N)=O)c1` [Example 122C]: the IC50 at human Nav1.8/b3 (setting [3]) and against human Nav1.8/b3 (setting [4]) was 5 to 50 nM in each case. With `Cc1nc(F)ccc1Oc1ncc(C(F)(F)F)c(C)c1C(=O)Nc1cccc(S(C)(=O)=O)c1` [Example 123C], the IC50 against human Nav1.8/b3 (setting [3]) and against human Nav1.8/b3 (setting [4]) was < 5 nM in each case. With `Cc1nc(F)ccc1Oc1ncc(-c2ccc(F)c(F)c2)c(C)c1C(=O)Nc1cccc(S(C)(=N)=N)c1` [Example 124C], the IC50 on human Nav1.8/b3 (setting [3]) and on human Nav1.8/b3 (setting [4]) was 5 to 50 nM each time. For the compound `COc1cc(C#N)ccc1Oc1ncc(-c2ccc(C(F)F)cc2)c(C)c1C(=O)Nc1ccnc(S(C)(=N)=O)c1` (stereo not shown) [Example 125C], the IC50 against human Nav1.8/b3 (setting [3]) and against human Nav1.8/b3 (setting [4]) was > 200 nM throughout.

The IC50 is the concentration needed to halve the response being measured.
